From PubChem BioAssay AID1745844 (Carcinogenic Potency Database (CPDB), 2022)
Where “and” joins values, the source holds several entries; their conditions need not be identical. Equal entries are not always repeated. Calls of active or inactive are those of the source. The rule behind the calls is not given here.

Test system: rodent lifetime carcinogenesis bioassay, tumor incidence TD50
Assay: carcinogenic potency in animals, long-term in vivo studies, CPDB compilation (AID 1745844)
[1] = mouse, strain B6C3F1, females, in feed, site: liver, lesion: hepatocellular carcinoma, dosed 91 weeks, study length 91 weeks
[2] = mouse, strain B6C3F1, females, in feed, site: liver, lesion: several types, types named in the paper, dosed 91 weeks, study length 91 weeks
[3] = mouse, strain B6C3F1, females, in feed, site: liver, lesion: several types, types named in the paper, dosed 100 weeks, study length 100 weeks

CNc1ccc(N(CCO)CCO)cc1[N+](=O)[O-]
TD50 (mouse, strain B6C3F1, females, in feed, site: any site (literature study), lesion: several types, types named in the paper, dosed 103 weeks, study length 104 weeks): 373 mg/kg/day
TD50 (mouse, strain B6C3F1, females, in feed, site: liver, lesion: hepatocellular adenoma + hepatocellular carcinoma + neoplastic nodule, dosed 103 weeks, study length 104 weeks): 179 mg/kg/day
TD50 (mouse, strain B6C3F1, females, in feed, site: liver, lesion: hepatocellular adenoma + hepatocellular carcinoma, dosed 103 weeks, study length 104 weeks): 179 mg/kg/day
TD50 (mouse, strain B6C3F1, females, in feed, site: liver, lesion: hepatocellular adenoma, dosed 38 weeks, study length 100 weeks): 165 mg/kg/day
TD50 (mouse, strain B6C3F1, females, in feed, site: liver, lesion: hepatocellular adenoma, dosed 64 weeks, study length 100 weeks): 969 mg/kg/day
TD50 (mouse, strain B6C3F1, females, in feed, site: liver, lesion: hepatocellular adenoma, dosed 103 weeks, study length 104 weeks): 697 mg/kg/day
TD50 (mouse, strain B6C3F1, females, in feed, site: liver, lesion: hepatocellular carcinoma, dosed 38 weeks, study length 100 weeks): 114 mg/kg/day
TD50 (mouse, strain B6C3F1, females, in feed, site: liver, lesion: hepatocellular carcinoma, dosed 64 weeks, study length 100 weeks): 94 mg/kg/day
TD50 [1]: 88.9 mg/kg/day and 148 mg/kg/day
carcinogen call [1]: positive
TD50 (mouse, strain B6C3F1, females, in feed, site: liver, lesion: hepatocellular carcinoma, dosed 100 weeks, study length 100 weeks): 115 mg/kg/day and 163 mg/kg/day and 87.1 mg/kg/day
TD50 (mouse, strain B6C3F1, females, in feed, site: liver, lesion: hepatocellular carcinoma, dosed 103 weeks, study length 104 weeks): 208 mg/kg/day
TD50 (mouse, strain B6C3F1, females, in feed, site: liver, lesion: several types, types named in the paper, dosed 38 weeks, study length 100 weeks): 41.3 mg/kg/day
TD50 (mouse, strain B6C3F1, females, in feed, site: liver, lesion: several types, types named in the paper, dosed 64 weeks, study length 100 weeks): 81.5 mg/kg/day
TD50 [2]: 85 mg/kg/day
carcinogen call [2]: positive
TD50 [3]: 70.6 mg/kg/day and 51.4 mg/kg/day
carcinogen call [3]: positive
TD50 (mouse, strain B6C3F1, males, in feed, site: any site (literature study), lesion: several types, types named in the paper, dosed 103 weeks, study length 104 weeks): 561 mg/kg/day
TD50 (mouse, strain B6C3F1, males, in feed, site: liver + thyroid gland, lesion: hepatocellular carcinoma + follicular-cell adenoma, dosed 103 weeks, study length 104 weeks): 369 mg/kg/day
TD50 (mouse, strain B6C3F1, males, in feed, site: liver, lesion: hepatocellular adenoma + hepatocellular carcinoma + neoplastic nodule, dosed 103 weeks, study length 104 weeks): 259 mg/kg/day
TD50 (mouse, strain B6C3F1, males, in feed, site: liver, lesion: hepatocellular adenoma + hepatocellular carcinoma, dosed 103 weeks, study length 104 weeks): 259 mg/kg/day
TD50 (mouse, strain B6C3F1, males, in feed, site: liver, lesion: hepatocellular adenoma, dosed 103 weeks, study length 104 weeks): 286 mg/kg/day
TD50 (mouse, strain B6C3F1, males, in feed, site: liver, lesion: hepatocellular carcinoma, dosed 103 weeks, study length 104 weeks): 389 mg/kg/day
TD50 (mouse, strain B6C3F1, males, in feed, site: thyroid gland, lesion: follicular-cell adenoma, dosed 103 weeks, study length 104 weeks): 2230 mg/kg/day
TD50 (rat, strain Fischer 344, females, in feed, site: liver, lesion: hepatocellular adenoma + hepatocellular carcinoma + neoplastic nodule, dosed 103 weeks, study length 104 weeks): 3310 mg/kg/day
TD50 (rat, strain Fischer 344, females, in feed, site: lung, lesion: alveolar/bronchiolar adenoma + alveolar/bronchiolar carcinoma, dosed 103 weeks, study length 104 weeks): 702 mg/kg/day
TD50 (rat, strain Fischer 344, females, in feed, site: lung, lesion: alveolar/bronchiolar carcinoma, dosed 103 weeks, study length 104 weeks): 1190 mg/kg/day
TD50 (rat, strain Fischer 344, females, in feed, site: uterus, lesion: endometrial stromal polyp, dosed 103 weeks, study length 104 weeks): 429 mg/kg/day
TD50 (rat, strain Fischer 344, males, in feed, site: liver, lesion: hepatocellular adenoma + hepatocellular carcinoma + neoplastic nodule, dosed 103 weeks, study length 104 weeks): 938 mg/kg/day
TD50 (rat, strain Fischer 344, males, in feed, site: liver, lesion: hepatocellular carcinoma + neoplastic nodule, dosed 103 weeks, study length 104 weeks): 938 mg/kg/day
TD50 (rat, strain Fischer 344, males, in feed, site: liver, lesion: neoplastic nodule, dosed 103 weeks, study length 104 weeks): 1660 mg/kg/day

CC(O)CCl (stereo unspecified)
carcinogen call (mouse, strain B6C3F1, females, in drinking water, site: any site (literature study), lesion: several types, types named in the paper, dosed 105 weeks, study length 105 weeks): negative (inactive)
TD50 (mouse, strain B6C3F1, females, in drinking water, site: liver, lesion: hepatocellular adenoma + hepatoblastoma + hepatocellular carcinoma, dosed 105 weeks, study length 105 weeks): 1040 mg/kg/day
carcinogen call (mouse, strain B6C3F1, males, in drinking water, site: any site (literature study), lesion: several types, types named in the paper, dosed 104 weeks, study length 104 weeks): negative (inactive)
carcinogen call (rat, strain Fischer 344, females, in drinking water, site: any site (literature study), lesion: several types, types named in the paper, dosed 104 weeks, study length 104 weeks): negative (inactive)
TD50 (rat, strain Fischer 344, females, in drinking water, site: liver, lesion: hepatocellular adenoma + hepatoblastoma + hepatocellular carcinoma, dosed 104 weeks, study length 104 weeks): 707 mg/kg/day
carcinogen call (rat, strain Fischer 344, males, in drinking water, site: any site (literature study), lesion: several types, types named in the paper, dosed 104 weeks, study length 104 weeks): negative (inactive)
TD50 (rat, strain Fischer 344, males, in drinking water, site: liver, lesion: hepatocellular adenoma + hepatoblastoma + hepatocellular carcinoma, dosed 104 weeks, study length 104 weeks): 427 mg/kg/day

CCc1nc(N)nc(N)c1-c1ccc(Cl)cc1
TD50 (mouse, strain B6C3F1, females, in feed, site: any site (literature study), lesion: several types, types named in the paper, dosed 78 weeks, study length 104 weeks): 315 mg/kg/day (inactive)
TD50 (mouse, strain B6C3F1, females, in feed, site: lung, lesion: alveolar/bronchiolar adenoma + alveolar/bronchiolar carcinoma, dosed 78 weeks, study length 104 weeks): 405 mg/kg/day
TD50 (mouse, strain B6C3F1, males, in feed, site: any site (literature study), lesion: several types, types named in the paper, dosed 78 weeks, study length 104 weeks): 419 mg/kg/day
TD50 (rat, strain Fischer 344, females, in feed, site: any site (literature study), lesion: several types, types named in the paper, dosed 78 weeks, study length 104 weeks): 27.8 mg/kg/day (inactive)
carcinogen call (rat, strain Fischer 344, males, in feed, site: any site (literature study), lesion: several types, types named in the paper, dosed 78 weeks, study length 104 weeks): negative (inactive)

O=S(=O)(O)O
TD50 (hamster, strain Syrian Golden, females, in drinking water, site: cecum, lesion: one or several types, types not named, dosed 108 weeks, study length 108 weeks): 115 mg/kg/day (inactive)
TD50 (hamster, strain Syrian Golden, females, in drinking water, site: thyroid gland, lesion: adenoma, dosed 108 weeks, study length 108 weeks): 124 mg/kg/day (inactive)
TD50 (hamster, strain Syrian Golden, males, in drinking water, site: cecum, lesion: one or several types, types not named, dosed 119 weeks, study length 119 weeks): 136 mg/kg/day (inactive)
carcinogen call (hamster, strain Syrian Golden, males, in drinking water, site: liver, lesion: hemangioma, dosed 119 weeks, study length 119 weeks): negative (inactive)
TD50 (hamster, strain Syrian Golden, males, in drinking water, site: liver, lesion: hepatocellular adenoma, dosed 91 weeks, study length 91 weeks): 87.5 mg/kg/day
TD50 (hamster, strain Syrian Golden, males, in drinking water, site: liver, lesion: hepatocellular adenoma, dosed 104 weeks, study length 104 weeks): 2590 mg/kg/day
TD50 (hamster, strain Syrian Golden, males, in drinking water, site: liver, lesion: hepatocellular carcinoma, dosed 91 weeks, study length 91 weeks): 464 mg/kg/day
TD50 (hamster, strain Syrian Golden, males, in drinking water, site: liver, lesion: hepatocellular carcinoma, dosed 104 weeks, study length 104 weeks): 181 mg/kg/day
TD50 (hamster, strain Syrian Golden, males, in drinking water, site: liver, lesion: histiocytoma, malignant, dosed 104 weeks, study length 104 weeks): 2580 mg/kg/day
TD50 (hamster, strain Syrian Golden, males, in drinking water, site: liver, lesion: reticulum-cell sarcoma, dosed 104 weeks, study length 104 weeks): 2590 mg/kg/day
TD50 (hamster, strain Syrian Golden, males, in drinking water, site: liver, lesion: several types, types named in the paper, dosed 91 weeks, study length 91 weeks): 87.5 mg/kg/day
carcinogen call (mouse, strain AKR, females, in drinking water, site: liver, lesion: one or several types, types not named, dosed 69 weeks, study length 69 weeks): negative (inactive)
carcinogen call (mouse, strain AKR, females, in drinking water, site: lung, lesion: one or several types, types not named, dosed 69 weeks, study length 69 weeks): negative (inactive)
carcinogen call (mouse, strain AKR, males, in drinking water, site: liver, lesion: hemangioma, dosed 69 weeks, study length 69 weeks): negative (inactive)
carcinogen call (mouse, strain AKR, males, in drinking water, site: lung, lesion: adenoma, dosed 69 weeks, study length 69 weeks): negative (inactive)
TD50 (mouse, strain C3H (MTV+), females, in drinking water, site: lung, lesion: adenoma, dosed 92 weeks, study length 92 weeks): 109 mg/kg/day
TD50 (mouse, strain CBA/Cb/Se, females, by gavage, site: liver, lesion: hepatoma, dosed 36 weeks, study length 74 weeks): 6.27 mg/kg/day
TD50 (mouse, strain CBA/Cb/Se, females, by gavage, site: lung, lesion: several types, types named in the paper, dosed 36 weeks, study length 74 weeks): 3.35 mg/kg/day
TD50 (mouse, strain CBA/Cb/Se, males, by gavage, site: liver, lesion: hepatoma, dosed 36 weeks, study length 84 weeks): 8.43 mg/kg/day
TD50 (mouse, strain CBA/Cb/Se, males, by gavage, site: lung, lesion: several types, types named in the paper, dosed 36 weeks, study length 84 weeks): 5.1 mg/kg/day
carcinogen call (mouse, strain ICRC x C3H (Jax), females, by gavage, site: liver, lesion: one or several types, types not named, dosed 73 weeks, study length 73 weeks): negative (inactive)
TD50 (mouse, strain ICRC x C3H (Jax), females, by gavage, site: lung, lesion: adenocarcinoma, dosed 73 weeks, study length 73 weeks): 10.3 mg/kg/day
carcinogen call (mouse, strain ICRC x C3H (Jax), males, by gavage, site: liver, lesion: one or several types, types not named, dosed 73 weeks, study length 73 weeks): negative (inactive)
TD50 (mouse, strain ICRC x C3H (Jax), males, by gavage, site: lung, lesion: adenocarcinoma, dosed 73 weeks, study length 73 weeks): 79.5 mg/kg/day
carcinogen call (mouse, strain Swiss albino, females, in drinking water, site: liver, lesion: hemangioma, dosed 95 weeks, study length 95 weeks): negative (inactive)
TD50 (mouse, strain Swiss albino, females, in drinking water, site: lung, lesion: adenocarcinoma, dosed 95 weeks, study length 95 weeks): 146 mg/kg/day
TD50 (mouse, strain Swiss albino, females, in drinking water, site: lung, lesion: adenoma, dosed 95 weeks, study length 95 weeks): 26.7 mg/kg/day
TD50 (mouse, strain Swiss albino, females, in drinking water, site: lung, lesion: several types, types named in the paper, dosed 95 weeks, study length 95 weeks): 23.8 mg/kg/day
TD50 (mouse, strain Swiss albino, males, in drinking water, site: liver, lesion: several types, types named in the paper, dosed 94 weeks, study length 94 weeks): 78.4 mg/kg/day
TD50 (mouse, strain Swiss albino, males, in drinking water, site: lung, lesion: adenocarcinoma, dosed 94 weeks, study length 94 weeks): 74.2 mg/kg/day
TD50 (mouse, strain Swiss albino, males, in drinking water, site: lung, lesion: adenoma, dosed 94 weeks, study length 94 weeks): 23.1 mg/kg/day
TD50 (mouse, strain Swiss albino, males, in drinking water, site: lung, lesion: several types, types named in the paper, dosed 94 weeks, study length 94 weeks): 18.7 mg/kg/day
TD50 (mouse, strain Swiss, both sexes, by gavage, site: lung, lesion: adenocarcinoma, dosed 95 weeks, study length 95 weeks): 9.81 mg/kg/day
TD50 (mouse, strain Swiss, both sexes, by gavage, site: lung, lesion: one or several types, types not named, dosed 54 weeks, study length 54 weeks): 3.92 mg/kg/day
TD50 (rat, strain Cb/Sc, females, by gavage, site: lung, lesion: several types, types named in the paper, dosed 68 weeks, study length 94 weeks): 42.4 mg/kg/day
TD50 (rat, strain Cb/Sc, males, by gavage, site: liver, lesion: several types, types named in the paper, dosed 68 weeks, study length 94 weeks): 39.4 mg/kg/day
TD50 (rat, strain Cb/Sc, males, by gavage, site: lung, lesion: several types, types named in the paper, dosed 68 weeks, study length 94 weeks): 60.1 mg/kg/day
